Laboratory results from patent US10632195B2, “Pharmaceutical device for electric-field assisted administration of Tapentadol and method of administering Tapentadol with same” (Gruenenthal GmbH, priority 2012, dated 2020).
Several values for one entry are separate records, joined by “and”; a condition that tells them apart may be missing. Equal values may be shown once. Where a name gives a salt, the structure may show the parent alone.

Assay: iontophoretic transdermal delivery of Tapentadol hydrochloride, 8 hours of iontophoresis (example 1a), side-bi-side diffusion cells, constant current 0.25 mA (0.4 mA/cm2), donor 100 mM in water
Type: in vitro ADME, pig
Details: for drug flux across the skin, Mean ± SD / drug flux across the skin, as tapentadol base, Mean ± SD / cumulative, iontophoretic delivery across the skin, Mean ± SD / cumulative, iontophoretic delivery across the skin, as tapentadol base, Mean ± SD: n=6; for drug flux across the skin, Mean ± SD / drug flux across the skin, as tapentadol base, Mean ± SD / cumulative, iontophoretic delivery across the skin, Mean ± SD / cumulative, iontophoretic delivery across the skin, as tapentadol base, Mean ± SD / drug flux across the skin / cumulative, iontophoretic delivery across the skin: patch area 0.64 cm^2; for drug flux across the skin / cumulative, iontophoretic delivery across the skin: single cells 1-6, hydrochloride
Method: Determination of the rate of iontophoretic transdermal delivery of Tapentadol hydrochloride for a period of 8 hours of iontophoresis
Tapentadol hydrochloride (batch no. A0012) was employed. The components of the phosphate buffered saline (PBS) and the mobile phase used were from Sigma, UK. The pig skin was obtained from a local farm, washed with water, excess hair was carefully trimmed with scissors, and the skin was dermatomed using a Zimmer dermatome set at a nominal thickness of 750 μm. The skin was then stored at −20° C.
The drug was delivered from the anode, using side-bi-side (horizontal) glass diffusion cells (n=6) supplied by Permegear, USA. The porcine skin membrane was excised from the dorsal surface.
Electrodes were prepared in-house and were made of silver/silver chloride. To pass current for 24 hours in this set-up, it was necessary for the donor compartment to contain 76 mM chloride ions.
The anode was placed in the donor chamber; the donor solution was 3 ml of Tapentadol hydrochloride (100 mM, i.e. 25.78 mg/ml of Tapentadol hydrochloride, 22.13 mg/ml of base) in water. The cathode was placed in the receptor chamber, which contained 3 ml of phosphate-buffered saline, pH 7.4. Both chambers were stirred by magnets.
Current was applied for a total of 8 or 24 hours, respectively.
The receptor solution was sampled and assayed at 0.5, 1, 2, 3, 4, 5, 6, 7, 8 (example 1a) and optionally 24 hours (example 1b) post-initiation of the current. During the 8 hour experiment (example 1a), at 0.5, 1, 2, and 3 hours, 1 ml of receptor solution was removed and replaced with fresh PBS. As it was clear that the amount of Tapentadol in the receptor solution was sufficient for quantitation by HPLC, at the subsequent sampling times of 4, 5, 6, 7 and 8 hours, the entire receptor solution (3 ml) was removed and replaced with fresh PBS, to ensure sink conditions in the receptor. During the 24 hour experiment (example 1b), the entire receptor solution (3 ml) was removed and replaced with fresh PBS at every sampling point.
The concentrations of Tapentadol hydrochloride in the receptor chamber samples were determined by HPLC. A mobile phase consisting of 300:700:1 methanol:water:phosphoric acid was pumped (1 ml/min) through a Acclaim RP-18 (4×150 mm) reverse-phase column (Dionex, UK) at 35° C. Tapentadol concentrations were quantified via their UV absorbance at 215 nm using a calibration curve diluted in PBS at pH 7.4. Injection volume was 20 μl and the retention time for Tapentadol hydrochloride was 12 minutes and the total run time was 16 minutes.
A Tapentadol-free “blank” diffusion cell (donor was saline only) was also prepared and the receptor solution was analysed after 8 hours to confirm no peaks from any component of the skin co-eluted with the Tapentadol hydrochloride.
Voltages were as expected for 6 cells in series (range was 6 to 28 volts). The pH of the donor solution was measured after termination of 24 hours of iontophoresis, and ranged from 6.47 to 6.99. The pH of drug in the donor prior to commencing the experiment was 5.07 (5.34 for the 8 hour iontophoresis).

## CC[C@@H](c1cccc(O)c1)[C@@H](C)CN(C)C [Tapentadol hydrochloride]
0.5 h, iontophoresis
  drug flux across the skin, Mean ± SD: 8 ± 8 µg/h
  drug flux across the skin, as tapentadol base, Mean ± SD: 7 ± 6 µg/h
0.5 h
  cumulative, iontophoretic delivery across the skin, Mean ± SD: 4 ± 4 µg
  cumulative, iontophoretic delivery across the skin, as tapentadol base, Mean ± SD: 3 ± 3 µg
1 h, iontophoresis
  drug flux across the skin, Mean ± SD: 56 ± 28 µg/h
  drug flux across the skin, as tapentadol base, Mean ± SD: 48 ± 24 µg/h
1 h
  cumulative, iontophoretic delivery across the skin, Mean ± SD: 32 ± 18 µg
  cumulative, iontophoretic delivery across the skin, as tapentadol base, Mean ± SD: 28 ± 15 µg
2 h, iontophoresis
  drug flux across the skin, Mean ± SD: 115 ± 25 µg/h
  drug flux across the skin, as tapentadol base, Mean ± SD: 98 ± 21 µg/h
  drug flux across the skin: 104 µg/h and 162 µg/h and 119 µg/h and 112 µg/h and 90 µg/h and 102 µg/h
2 h
  cumulative, iontophoretic delivery across the skin, Mean ± SD: 147 ± 40 µg
  cumulative, iontophoretic delivery across the skin, as tapentadol base, Mean ± SD: 126 ± 35 µg
  cumulative, iontophoretic delivery across the skin: 216 µg and 173 µg and 128 µg and 127 µg
3 h, iontophoresis
  drug flux across the skin, Mean ± SD: 193 ± 31 µg/h
  drug flux across the skin, as tapentadol base, Mean ± SD: 166 ± 26 µg/h
  drug flux across the skin: 190 µg/h and 201 µg/h and 222 µg/h and 184 µg/h and 139 µg/h and 220 µg/h
3 h
  cumulative, iontophoretic delivery across the skin, Mean ± SD: 340 ± 62 µg
  cumulative, iontophoretic delivery across the skin, as tapentadol base, Mean ± SD: 291 ± 54 µg
  cumulative, iontophoretic delivery across the skin: 321 µg and 417 µg and 396 µg and 312 µg and 244 µg and 347 µg
4 h, iontophoresis
  drug flux across the skin, Mean ± SD: 228 ± 23 µg/h
  drug flux across the skin, as tapentadol base, Mean ± SD: 196 ± 20 µg/h
  drug flux across the skin: 229 µg/h and 257 µg/h and 209 µg/h and 250 µg/h and 196 µg/h
4 h
  cumulative, iontophoretic delivery across the skin, Mean ± SD: 568 ± 68 µg
  cumulative, iontophoretic delivery across the skin, as tapentadol base, Mean ± SD: 487 ± 58 µg
  cumulative, iontophoretic delivery across the skin: 550 µg and 674 µg and 624 µg and 522 µg and 494 µg and 543 µg
5 h, iontophoresis
  drug flux across the skin, Mean ± SD: 246 ± 30 µg/h
  drug flux across the skin, as tapentadol base, Mean ± SD: 211 ± 26 µg/h
  drug flux across the skin: 242 µg/h and 305 µg/h and 234 µg/h and 238 µg/h and 240 µg/h and 217 µg/h
5 h
  cumulative, iontophoretic delivery across the skin, Mean ± SD: 814 ± 92 µg
  cumulative, iontophoretic delivery across the skin, as tapentadol base, Mean ± SD: 699 ± 79 µg
  cumulative, iontophoretic delivery across the skin: 792 µg and 979 µg and 859 µg and 759 µg and 734 µg and 760 µg
6 h, iontophoresis
  drug flux across the skin, Mean ± SD: 244 ± 18 µg/h
  drug flux across the skin, as tapentadol base, Mean ± SD: 209 ± 15 µg/h
  drug flux across the skin: 247 µg/h and 275 µg/h and 245 µg/h and 225 µg/h and 242 µg/h and 228 µg/h
6 h
  cumulative, iontophoretic delivery across the skin, Mean ± SD: 1057 ± 107 µg
  cumulative, iontophoretic delivery across the skin, as tapentadol base, Mean ± SD: 908 ± 92 µg
  cumulative, iontophoretic delivery across the skin: 1040 µg and 1253 µg and 1104 µg and 984 µg and 976 µg and 988 µg
7 h, iontophoresis
  drug flux across the skin, Mean ± SD: 261 ± 26 µg/h
  drug flux across the skin, as tapentadol base, Mean ± SD: 224 ± 22 µg/h
  drug flux across the skin: 264 µg/h and 295 µg/h and 271 µg/h and 260 µg/h and 261 µg/h and 215 µg/h
7 h
  cumulative, iontophoretic delivery across the skin, Mean ± SD: 1319 ± 128 µg
  cumulative, iontophoretic delivery across the skin, as tapentadol base, Mean ± SD: 1132 ± 110 µg
  cumulative, iontophoretic delivery across the skin: 1304 µg and 1548 µg and 1375 µg and 1244 µg and 1237 µg and 1203 µg
8 h, iontophoresis
  drug flux across the skin, Mean ± SD: 260 ± 46 µg/h
  drug flux across the skin, as tapentadol base, Mean ± SD: 224 ± 40 µg/h
  drug flux across the skin: 260 µg/h and 353 µg/h and 241 µg/h and 234 µg/h and 242 µg/h and 232 µg/h
8 h
  cumulative, iontophoretic delivery across the skin, Mean ± SD: 1579 ± 171 µg
  cumulative, iontophoretic delivery across the skin, as tapentadol base, Mean ± SD: 1356 ± 147 µg
  cumulative, iontophoretic delivery across the skin: 1564 µg and 1901 µg and 1616 µg and 1479 µg and 1435 µg
Example 1a, iontophoresis
  time by which steady-state flux appears to have been reached: 5 to 6 h
